Values quoted from earlier work, collected in US9468209B2, “Method for eradicating weeds with derivatives of 3-acetyl-5-sec-butyl-4-hydroxy-3-pyrrolin-2-one” (priority 2012, dated 2016).

Experiments:
[1] = tested on: Hill reaction; conditions: versus 3-(3,4-dichlorophenyl)-1,1-dimethylurea (DCMU); cited from earlier work
[2] = tested on: monocotyledon weeds (such as common crabgrass and barnyardgrass) and dicotyledonous weeds including Crofton weeds; conditions: concentration of 50 μg/mL; cited from earlier work
[3] = tested on: rat; conditions: called moderate toxicity; cited from earlier work

CCC(C)C1NC(=O)C(C(C)=O)=C1O (stereo not drawn) [3-acetyl-5-sec-butyl-4-hydroxy-3-pyrrolin-2-one]
inhibition to Hill reaction compared with DCMU [1]: much higher than the typical photosynthetic inhibitor | killing monocotyledon and dicotyledonous weeds [2]: very effective | toxicity to rat [3]: 200 mg/kg
